# In ChEMBL document CHEMBL1201862, “PubChem BioAssay data set” (2004):
#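 48-hour exposure; five concentrations; linearly interpolated endpoints. GI50 marks 50% less growth.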 Activity calls are given as the source filed them. Cut-off read from the data, not from the text of the source: active = GI50 up to about 1.1 µM and inactive = higher.
# What was measured:
# Assay in all cases: NCI-60 cell line screen, 48 h
# 786-0 = system: 786-0
# A498 = system: A498
# ACHN = system: ACHN
# BT-549 = system: BT-549
# CAKI-1 = system: CAKI-1
# CCRF-CEM = system: CCRF-CEM
# COLO 205 = system: COLO 205
# HCC 2998 = system: HCC 2998
# HCT-116 = system: HCT-116
# HL-60 = system: HL-60
# HOP-62 = system: HOP-62
# HT-29 = system: HT-29
# Hs-578T = system: Hs-578T
# IGROV-1 = system: IGROV-1
# K562 = system: K562
# M14 = system: M14
# MDA-MB-435 = system: MDA-MB-435
# MOLT-4 = system: MOLT-4
# NCI-H23 = system: NCI-H23
# NCI/ADR-RES = system: NCI/ADR-RES
# OVCAR-5 = system: OVCAR-5
# RPMI-8226 = system: RPMI-8226
# RXF 393 = system: RXF 393
# SF-268 = system: SF-268
# SF-539 = system: SF-539
# SK-MEL-28 = system: SK-MEL-28
# SK-MEL-2 = system: SK-MEL-2
# SK-OV-3 = system: SK-OV-3
# SNB-19 = system: SNB-19
# SNB-75 = system: SNB-75
# SR = system: SR
# T47D = system: T47D
# U-251 = system: U-251
# UACC-257 = system: UACC-257
# UO-31 = system: UO-31
# A549 = system: A549
# DU-145 = system: DU-145
# EKVX = system: EKVX
# HCT-15 = system: HCT-15
# HOP-92 = system: HOP-92
# KM12 = system: KM12
# LOX IMVI = system: LOX IMVI
# MCF7 = system: MCF7
# MDA-MB-231 = system: MDA-MB-231
# MDA-N = system: MDA-N
# NCI-H460 = system: NCI-H460
# NCI-H522 = system: NCI-H522
# OVCAR-3 = system: OVCAR-3
# OVCAR-4 = system: OVCAR-4
# OVCAR-8 = system: OVCAR-8
# PC-3 = system: PC-3
# SF-295 = system: SF-295
# SK-MEL-5 = system: SK-MEL-5
# SN12C = system: SN12C
# SW-620 = system: SW-620
# TK-10 = system: TK-10
# UACC-62 = system: UACC-62
# NCI-H226 = system: NCI-H226
# Malme-3M = system: Malme-3M
compound,measurement,setting,value
CCOC(=O)C(NC(=O)Nc1ccc(C)cc1)(OCC)C(F)(F)F (stereo not given),GI50,786-0,> 100 µM (inactive)
same,GI50,A498,53.8 µM (inactive)
same,GI50,ACHN,56.5 µM (inactive)
same,GI50,BT-549,> 100 µM (inactive)
same,GI50,CAKI-1,1.18 µM (inactive)
same,GI50,CCRF-CEM,> 100 µM (inactive)
same,GI50,COLO 205,> 100 µM (inactive)
same,GI50,HCC 2998,> 100 µM (inactive)
same,GI50,HCT-116,> 100 µM (inactive)
same,GI50,HL-60,64.4 µM (inactive)
same,GI50,HOP-62,26.5 µM (inactive)
same,GI50,HT-29,> 100 µM (inactive)
same,GI50,Hs-578T,71.4 µM (inactive)
same,GI50,IGROV-1,> 100 µM (inactive)
same,GI50,K562,> 100 µM (inactive)
same,GI50,M14,> 100 µM (inactive)
same,GI50,MDA-MB-435,> 100 µM (inactive)
same,GI50,MOLT-4,> 100 µM (inactive)
same,GI50,NCI-H23,> 100 µM (inactive)
same,GI50,NCI/ADR-RES,42.3 µM (inactive)
same,GI50,OVCAR-5,> 100 µM (inactive)
same,GI50,RPMI-8226,> 100 µM (inactive)
same,GI50,RXF 393,> 100 µM (inactive)
same,GI50,SF-268,> 100 µM (inactive)
same,GI50,SF-539,> 100 µM (inactive)
same,GI50,SK-MEL-28,> 100 µM (inactive)
same,GI50,SK-MEL-2,> 100 µM (inactive)
same,GI50,SK-OV-3,> 100 µM (inactive)
same,GI50,SNB-19,> 100 µM (inactive)
same,GI50,SNB-75,> 100 µM (inactive)
same,GI50,SR,88.9 µM (inactive)
same,GI50,T47D,> 100 µM (inactive)
same,GI50,U-251,> 100 µM (inactive)
same,GI50,UACC-257,> 100 µM (inactive)
same,GI50,UO-31,54.1 µM (inactive)
CCOc1ncn(-c2ccc(NC(=S)NC34CC5CC(CC(C5)C3)C4)cc2)n1,GI50,786-0,13.2 µM (inactive)
same,GI50,A549,7.24 µM (inactive)
same,GI50,BT-549,> 100 µM (inactive)
same,GI50,CCRF-CEM,> 100 µM (inactive)
same,GI50,COLO 205,> 100 µM (inactive)
same,GI50,DU-145,> 100 µM (inactive)
same,GI50,EKVX,> 100 µM (inactive)
same,GI50,HCC 2998,> 100 µM (inactive)
same,GI50,HCT-116,68.4 µM (inactive)
same,GI50,HCT-15,> 100 µM
same,GI50,HL-60,> 100 µM (inactive)
same,GI50,HOP-62,35.2 µM (inactive)
same,GI50,HOP-92,25 µM (inactive)
same,GI50,HT-29,80.5 µM (inactive)
same,GI50,IGROV-1,> 100 µM (inactive)
same,GI50,K562,> 100 µM (inactive)
same,GI50,KM12,8.47 µM (inactive)
same,GI50,LOX IMVI,> 100 µM (inactive)
same,GI50,M14,61.9 µM (inactive)
same,GI50,MCF7,> 100 µM (inactive)
same,GI50,MDA-MB-231,76.4 µM (inactive)
same,GI50,MDA-MB-435,> 100 µM (inactive)
same,GI50,MDA-N,> 100 µM (inactive)
same,GI50,MOLT-4,> 100 µM (inactive)
same,GI50,NCI-H23,> 100 µM (inactive)
same,GI50,NCI-H460,53.5 µM (inactive)
same,GI50,NCI-H522,99.1 µM (inactive)
same,GI50,OVCAR-3,> 100 µM (inactive)
same,GI50,OVCAR-4,22.3 µM (inactive)
same,GI50,OVCAR-5,> 100 µM (inactive)
same,GI50,OVCAR-8,22.8 µM (inactive)
same,GI50,PC-3,> 100 µM (inactive)
same,GI50,RPMI-8226,> 100 µM (inactive)
same,GI50,SF-268,> 100 µM (inactive)
same,GI50,SF-295,48.4 µM (inactive)
same,GI50,SF-539,> 100 µM (inactive)
same,GI50,SK-MEL-28,61.8 µM (inactive)
same,GI50,SK-MEL-5,58.5 µM (inactive)
same,GI50,SK-OV-3,33.2 µM (inactive)
same,GI50,SN12C,> 100 µM (inactive)
same,GI50,SNB-19,46.1 µM (inactive)
same,GI50,SNB-75,25.4 µM (inactive)
same,GI50,SR,> 100 µM (inactive)
same,GI50,SW-620,> 100 µM (inactive)
same,GI50,T47D,> 100 µM (inactive)
same,GI50,TK-10,59.2 µM (inactive)
same,GI50,U-251,> 10 µM (inactive)
same,GI50,UACC-257,> 100 µM (inactive)
same,GI50,UACC-62,38 µM (inactive)
same,GI50,UO-31,> 100 µM (inactive)
COc1ccc(-c2csc(Cc3nc4c(Br)cc(Br)cc4c(=O)n3-c3ccc(OC)cc3)n2)cc1,GI50,786-0,28.3 µM (inactive)
same,GI50,A498,45.3 µM (inactive)
same,GI50,A549,63.2 µM (inactive)
same,GI50,ACHN,43.7 µM (inactive)
same,GI50,BT-549,> 100 µM (inactive)
same,GI50,CAKI-1,94.4 µM (inactive)
same,GI50,CCRF-CEM,< 0.01 µM (active)
same,GI50,COLO 205,34.8 µM (inactive)
same,GI50,DU-145,> 100 µM (inactive)
same,GI50,EKVX,> 100 µM (inactive)
same,GI50,HCC 2998,> 100 µM (inactive)
same,GI50,HCT-116,30.4 µM (inactive)
same,GI50,HCT-15,24 µM
same,GI50,HOP-62,> 100 µM (inactive)
same,GI50,HOP-92,> 100 µM (inactive)
same,GI50,HT-29,48.9 µM (inactive)
same,GI50,Hs-578T,> 100 µM (inactive)
same,GI50,IGROV-1,73.3 µM (inactive)
same,GI50,K562,0.333 µM (active)
same,GI50,KM12,86.5 µM (inactive)
same,GI50,LOX IMVI,> 100 µM (inactive)
same,GI50,M14,20.9 µM (inactive)
same,GI50,MCF7,63.1 µM (inactive)
same,GI50,MDA-MB-231,45.7 µM (inactive)
same,GI50,MDA-MB-435,15.9 µM (inactive)
same,GI50,MDA-N,3.7 µM (inactive)
same,GI50,MOLT-4,25.5 µM (inactive)
same,GI50,NCI-H226,> 100 µM (inactive)
same,GI50,NCI-H23,96.2 µM (inactive)
same,GI50,NCI-H460,54 µM (inactive)
same,GI50,NCI/ADR-RES,50.9 µM (inactive)
same,GI50,OVCAR-3,> 100 µM (inactive)
same,GI50,OVCAR-4,> 100 µM (inactive)
same,GI50,OVCAR-5,56.4 µM (inactive)
same,GI50,OVCAR-8,> 100 µM (inactive)
same,GI50,PC-3,28.9 µM (inactive)
same,GI50,RXF 393,> 100 µM (inactive)
same,GI50,SF-295,59.4 µM (inactive)
same,GI50,SK-MEL-28,24.3 µM (inactive)
same,GI50,SK-MEL-2,48 µM (inactive)
same,GI50,SK-MEL-5,20.3 µM (inactive)
same,GI50,SK-OV-3,51.8 µM (inactive)
same,GI50,SNB-19,18.9 µM (inactive)
same,GI50,SNB-75,> 100 µM (inactive)
same,GI50,SW-620,67 µM (inactive)
same,GI50,TK-10,56.6 µM (inactive)
same,GI50,U-251,30.3 µM (inactive)
same,GI50,UACC-257,> 100 µM (inactive)
same,GI50,UACC-62,53.3 µM (inactive)
same,GI50,UO-31,35.2 µM (inactive)
Cc1cc2ccccc2oc(=O)/c1=N\Nc1ccccc1,GI50,786-0,25.6 µM (inactive)
same,GI50,A498,> 100 µM (inactive)
same,GI50,A549,74.3 µM (inactive)
same,GI50,ACHN,22.6 µM (inactive)
same,GI50,BT-549,78.9 µM (inactive)
same,GI50,CAKI-1,37.4 µM (inactive)
same,GI50,CCRF-CEM,> 100 µM (inactive)
same,GI50,COLO 205,> 100 µM (inactive)
same,GI50,DU-145,> 100 µM (inactive)
same,GI50,EKVX,37.2 µM (inactive)
same,GI50,HCC 2998,> 100 µM (inactive)
same,GI50,HCT-116,41.9 µM (inactive)
same,GI50,HCT-15,> 100 µM
same,GI50,HL-60,> 100 µM (inactive)
same,GI50,HOP-62,19.3 µM (inactive)
same,GI50,HOP-92,73.8 µM (inactive)
same,GI50,HT-29,64.6 µM (inactive)
same,GI50,IGROV-1,25.8 µM (inactive)
same,GI50,K562,14.5 µM (inactive)
same,GI50,KM12,58.2 µM (inactive)
same,GI50,LOX IMVI,60.1 µM (inactive)
same,GI50,M14,> 100 µM (inactive)
same,GI50,MCF7,83.2 µM (inactive)
same,GI50,MDA-MB-231,25.6 µM (inactive)
same,GI50,MDA-MB-435,> 100 µM (inactive)
same,GI50,MDA-N,> 100 µM (inactive)
same,GI50,MOLT-4,> 100 µM (inactive)
same,GI50,Malme-3M,> 100 µM (inactive)
same,GI50,NCI-H226,47.9 µM (inactive)
same,GI50,NCI-H23,78.5 µM (inactive)
same,GI50,NCI-H460,70 µM (inactive)
same,GI50,NCI-H522,65.5 µM (inactive)
same,GI50,NCI/ADR-RES,32.3 µM (inactive)
same,GI50,OVCAR-3,> 100 µM (inactive)
same,GI50,OVCAR-4,48.1 µM (inactive)
same,GI50,OVCAR-5,> 100 µM (inactive)
same,GI50,OVCAR-8,28.8 µM (inactive)
same,GI50,PC-3,62.7 µM (inactive)
same,GI50,RPMI-8226,> 100 µM (inactive)
same,GI50,RXF 393,35.2 µM (inactive)
same,GI50,SF-295,32.6 µM (inactive)
same,GI50,SF-539,37.8 µM (inactive)
same,GI50,SK-MEL-28,> 100 µM (inactive)
same,GI50,SK-MEL-2,> 100 µM (inactive)
same,GI50,SK-MEL-5,84.1 µM (inactive)
same,GI50,SK-OV-3,21.5 µM (inactive)
same,GI50,SN12C,65.3 µM (inactive)
same,GI50,SNB-19,36.2 µM (inactive)
same,GI50,SNB-75,20.9 µM (inactive)
same,GI50,SR,> 100 µM (inactive)
same,GI50,SW-620,23 µM (inactive)
same,GI50,U-251,39.9 µM (inactive)
same,GI50,UACC-257,> 100 µM (inactive)
same,GI50,UACC-62,19.2 µM (inactive)
same,GI50,UO-31,24.9 µM (inactive)
